Results published in PMC10657444, “Design and evaluation of tadpole-like conformational antimicrobial peptides” (Communications Biology, 2023).
Like-named read-outs stand apart in the source and are kept apart here.

Legend:
[1] = test system: K. pneumoniae ATCC 700603; test: microbe, parasite or virus in culture; assay type: cell-based, Klebsiella pneumoniae; conditions: for MIC: Klebsiella pneumoniae
Method: (§1) MRSA USA 300 and K. pneumoniae ATCC 700603 were employed to assess the development of resistance. From inoculated microtiter panels, an aliquot of the well with the highest concentration permitting growth was taken and back diluted in fresh media to a turbidity of a 0.5 McFarland standard. This suspension was then further diluted and used to inoculate a fresh MIC panel resulting in a final concentration of 5 × 10^6 CFU/mL. Panels were incubated according to CLSI guidelines (M07, 11th edition, 2018), MICs were recorded and the next inoculum was prepared from the well containing the highest concentration of drug that allowed growth in identical fashion as described above.

[2] = test system: MRSA USA 300; test: microbe, parasite or virus in culture; assay type: cell-based, Staphylococcus aureus; conditions: for MIC: Staphylococcus aureus
Method: as §1

O=C(O)c1cn(C2CC2)c2cc(N3CCNCC3)c(F)cc2c1=O [ciprofloxacin, reference compound]
0.25 µg/mL: MIC ([1]; ATCC700603, 0 h, read-out: Concentration (MIC in drug resistance assay), K. pneumoniae ATCC 700603, day 0)
8 µg/mL: MIC ([1]; ATCC700603, 480 h, read-out: Concentration (MIC in drug resistance assay), K. pneumoniae ATCC 700603, day 20) | MIC ([1]; ATCC700603, 624 h, read-out: Concentration (MIC in drug resistance assay), K. pneumoniae ATCC 700603, day 26) | MIC ([1]; ATCC700603, 648 h, read-out: Concentration (MIC in drug resistance assay), K. pneumoniae ATCC 700603, day 27) | MIC ([1]; ATCC700603, 672 h, read-out: Concentration (MIC in drug resistance assay), K. pneumoniae ATCC 700603, day 28) | MIC ([1]; ATCC700603, 696 h, read-out: Concentration (MIC in drug resistance assay), K. pneumoniae ATCC 700603, day 29) | MIC ([1]; ATCC700603, read-out: Concentration (MIC in drug resistance assay), K. pneumoniae ATCC 700603, day 30) | MIC ([1]; ATCC700603, read-out: Concentration (MIC in drug resistance assay), K. pneumoniae ATCC 700603, day 31) | MIC ([1]; ATCC700603, read-out: Concentration (MIC in drug resistance assay), K. pneumoniae ATCC 700603, day 32) | MIC ([1]; ATCC700603, read-out: Concentration (MIC in drug resistance assay), K. pneumoniae ATCC 700603, day 33) | MIC ([1]; ATCC700603, read-out: Concentration (MIC in drug resistance assay), K. pneumoniae ATCC 700603, day 34) | MIC ([2]; read-out: Concentration (MIC in drug resistance assay), MRSA USA 300, day 31)
4 µg/mL: MIC ([1]; ATCC700603, 336 h, read-out: Concentration (MIC in drug resistance assay), K. pneumoniae ATCC 700603, day 14) | MIC ([1]; ATCC700603, 360 h, read-out: Concentration (MIC in drug resistance assay), K. pneumoniae ATCC 700603, day 15) | MIC ([1]; ATCC700603, 384 h, read-out: Concentration (MIC in drug resistance assay), K. pneumoniae ATCC 700603, day 16) | MIC ([1]; ATCC700603, 408 h, read-out: Concentration (MIC in drug resistance assay), K. pneumoniae ATCC 700603, day 17) | MIC ([1]; ATCC700603, 432 h, read-out: Concentration (MIC in drug resistance assay), K. pneumoniae ATCC 700603, day 18) | MIC ([1]; ATCC700603, 456 h, read-out: Concentration (MIC in drug resistance assay), K. pneumoniae ATCC 700603, day 19) | MIC ([1]; ATCC700603, 504 h, read-out: Concentration (MIC in drug resistance assay), K. pneumoniae ATCC 700603, day 21) | MIC ([1]; ATCC700603, 528 h, read-out: Concentration (MIC in drug resistance assay), K. pneumoniae ATCC 700603, day 22) | MIC ([1]; ATCC700603, 552 h, read-out: Concentration (MIC in drug resistance assay), K. pneumoniae ATCC 700603, day 23) | MIC ([1]; ATCC700603, 576 h, read-out: Concentration (MIC in drug resistance assay), K. pneumoniae ATCC 700603, day 24) | MIC ([1]; ATCC700603, 600 h, read-out: Concentration (MIC in drug resistance assay), K. pneumoniae ATCC 700603, day 25) | MIC ([2]; 192 h, read-out: Concentration (MIC in drug resistance assay), MRSA USA 300, day 8) | MIC ([2]; 216 h, read-out: Concentration (MIC in drug resistance assay), MRSA USA 300, day 9) | MIC ([2]; 288 h, read-out: Concentration (MIC in drug resistance assay), MRSA USA 300, day 12) | MIC ([2]; 480 h, read-out: Concentration (MIC in drug resistance assay), MRSA USA 300, day 20) | MIC ([2]; 624 h, read-out: Concentration (MIC in drug resistance assay), MRSA USA 300, day 26) | MIC ([2]; read-out: Concentration (MIC in drug resistance assay), MRSA USA 300, day 30)
2 µg/mL: MIC ([1]; ATCC700603, 192 h, read-out: Concentration (MIC in drug resistance assay), K. pneumoniae ATCC 700603, day 8) | MIC ([1]; ATCC700603, 264 h, read-out: Concentration (MIC in drug resistance assay), K. pneumoniae ATCC 700603, day 11) | MIC ([1]; ATCC700603, 288 h, read-out: Concentration (MIC in drug resistance assay), K. pneumoniae ATCC 700603, day 12) | MIC ([1]; ATCC700603, 312 h, read-out: Concentration (MIC in drug resistance assay), K. pneumoniae ATCC 700603, day 13) | MIC ([2]; 96 h, read-out: Concentration (MIC in drug resistance assay), MRSA USA 300, day 4) | MIC ([2]; 168 h, read-out: Concentration (MIC in drug resistance assay), MRSA USA 300, day 7) | MIC ([2]; 240 h, read-out: Concentration (MIC in drug resistance assay), MRSA USA 300, day 10) | MIC ([2]; 312 h, read-out: Concentration (MIC in drug resistance assay), MRSA USA 300, day 13) | MIC ([2]; 336 h, read-out: Concentration (MIC in drug resistance assay), MRSA USA 300, day 14) | MIC ([2]; 360 h, read-out: Concentration (MIC in drug resistance assay), MRSA USA 300, day 15) | MIC ([2]; 384 h, read-out: Concentration (MIC in drug resistance assay), MRSA USA 300, day 16) | MIC ([2]; 408 h, read-out: Concentration (MIC in drug resistance assay), MRSA USA 300, day 17) | MIC ([2]; 432 h, read-out: Concentration (MIC in drug resistance assay), MRSA USA 300, day 18) | MIC ([2]; 456 h, read-out: Concentration (MIC in drug resistance assay), MRSA USA 300, day 19) | MIC ([2]; 504 h, read-out: Concentration (MIC in drug resistance assay), MRSA USA 300, day 21) | MIC ([2]; 528 h, read-out: Concentration (MIC in drug resistance assay), MRSA USA 300, day 22) | MIC ([2]; 552 h, read-out: Concentration (MIC in drug resistance assay), MRSA USA 300, day 23) | MIC ([2]; 576 h, read-out: Concentration (MIC in drug resistance assay), MRSA USA 300, day 24) | MIC ([2]; 600 h, read-out: Concentration (MIC in drug resistance assay), MRSA USA 300, day 25) | MIC ([2]; 648 h, read-out: Concentration (MIC in drug resistance assay), MRSA USA 300, day 27) | MIC ([2]; 672 h, read-out: Concentration (MIC in drug resistance assay), MRSA USA 300, day 28) | MIC ([2]; 696 h, read-out: Concentration (MIC in drug resistance assay), MRSA USA 300, day 29)
63 µg/mL: MIC ([2]; read-out: Concentration (MIC in drug resistance assay), MRSA USA 300, day 39)
64 fold: increase in MIC after 40 passages ([1]; serial passage at sub-MIC) | increase in MIC after 40 passages ([2]; serial passage at sub-MIC)
64 µg/mL: MIC ([2]; read-out: Concentration (MIC in drug resistance assay), MRSA USA 300, day 40)
32 µg/mL: MIC ([2]; read-out: Concentration (MIC in drug resistance assay), MRSA USA 300, day 32) | MIC ([2]; read-out: Concentration (MIC in drug resistance assay), MRSA USA 300, day 36) | MIC ([2]; read-out: Concentration (MIC in drug resistance assay), MRSA USA 300, day 37) | MIC ([2]; read-out: Concentration (MIC in drug resistance assay), MRSA USA 300, day 38)
1 µg/mL: MIC ([1]; ATCC700603, 48 h, read-out: Concentration (MIC in drug resistance assay), K. pneumoniae ATCC 700603, day 2) | MIC ([1]; ATCC700603, 96 h, read-out: Concentration (MIC in drug resistance assay), K. pneumoniae ATCC 700603, day 4) | MIC ([1]; ATCC700603, 144 h, read-out: Concentration (MIC in drug resistance assay), K. pneumoniae ATCC 700603, day 6) | MIC ([1]; ATCC700603, 168 h, read-out: Concentration (MIC in drug resistance assay), K. pneumoniae ATCC 700603, day 7) | MIC ([1]; ATCC700603, 216 h, read-out: Concentration (MIC in drug resistance assay), K. pneumoniae ATCC 700603, day 9) | MIC ([1]; ATCC700603, 240 h, read-out: Concentration (MIC in drug resistance assay), K. pneumoniae ATCC 700603, day 10) | MIC ([2]; 0 h, read-out: Concentration (MIC in drug resistance assay), MRSA USA 300, day 0) | MIC ([2]; 48 h, read-out: Concentration (MIC in drug resistance assay), MRSA USA 300, day 2) | MIC ([2]; 72 h, read-out: Concentration (MIC in drug resistance assay), MRSA USA 300, day 3) | MIC ([2]; 120 h, read-out: Concentration (MIC in drug resistance assay), MRSA USA 300, day 5) | MIC ([2]; 144 h, read-out: Concentration (MIC in drug resistance assay), MRSA USA 300, day 6) | MIC ([2]; 264 h, read-out: Concentration (MIC in drug resistance assay), MRSA USA 300, day 11)
0.5 µg/mL: MIC ([1]; ATCC700603, 24 h, read-out: Concentration (MIC in drug resistance assay), K. pneumoniae ATCC 700603, day 1) | MIC ([1]; ATCC700603, 72 h, read-out: Concentration (MIC in drug resistance assay), K. pneumoniae ATCC 700603, day 3) | MIC ([1]; ATCC700603, 120 h, read-out: Concentration (MIC in drug resistance assay), K. pneumoniae ATCC 700603, day 5) | MIC ([2]; 24 h, read-out: Concentration (MIC in drug resistance assay), MRSA USA 300, day 1)
16 µg/mL: MIC ([1]; ATCC700603, read-out: Concentration (MIC in drug resistance assay), K. pneumoniae ATCC 700603, day 35) | MIC ([1]; ATCC700603, read-out: Concentration (MIC in drug resistance assay), K. pneumoniae ATCC 700603, day 36) | MIC ([1]; ATCC700603, read-out: Concentration (MIC in drug resistance assay), K. pneumoniae ATCC 700603, day 37) | MIC ([1]; ATCC700603, read-out: Concentration (MIC in drug resistance assay), K. pneumoniae ATCC 700603, day 38) | MIC ([1]; ATCC700603, read-out: Concentration (MIC in drug resistance assay), K. pneumoniae ATCC 700603, day 39) | MIC ([1]; ATCC700603, read-out: Concentration (MIC in drug resistance assay), K. pneumoniae ATCC 700603, day 40) | MIC ([2]; read-out: Concentration (MIC in drug resistance assay), MRSA USA 300, day 33) | MIC ([2]; read-out: Concentration (MIC in drug resistance assay), MRSA USA 300, day 34) | MIC ([2]; read-out: Concentration (MIC in drug resistance assay), MRSA USA 300, day 35)
